In patent US9695155B2, “Herbicidal substituted pyrimidinyloxy benzene compounds” (E. I. DU PONT DE NEMOURS AND COMPANY, priority 2013, dated 2017):

Assays:
[1] = tested on: ragweed; assay: Test A preemergence; type: in vivo, Ambrosia elatior
Method in brief: (§1)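 Scoring: eye-based comparison with untreated controls, 0 for no effect through 100 for complete control, at about day 10. Treatments: directed soil spray preemergence; foliar spray postemergence on 2–10 cm plants at the one- to two-leaf stage. Medium: loam soil with sand.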

[2] = tested on: Italian ryegrass; assay: Test A preemergence; type: in vivo, Lolium multiflorum
Method in brief: as §1

[3] = tested on: Italian ryegrass; assay: Test A postemergence; type: in vivo, Lolium multiflorum
Method in brief: as §1

[4] = tested on: blackgrass; assay: Test A postemergence; type: in vivo, Alopecurus myosuroides
Method in brief: as §1

[5] = tested on: rice; assay: Test C flooded paddy test; type: in vivo, Oryza sativa; conditions: Flood, scale 0 to 100 (0 no effect, 100 complete control), 13 to 15 days
Method in brief: (§2)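 Test compounds are applied straight into paddy water held 3 cm above the soil surface, with that flood maintained for the whole test. After 13 to 15 days in the greenhouse, each species is scored visually relative to controls.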

[6] = tested on: ducksalad; assay: Test C flooded paddy test; type: in vivo, Heteranthera limosa; conditions: Flood, scale 0 to 100 (0 no effect, 100 complete control), 13 to 15 days
Method in brief: as §2

[7] = 125 g ai/ha, 0 to 100 scale where 0 is no effect and 100 is complete control
[8] = 500 g ai/ha, 0 to 100 scale where 0 is no effect and 100 is complete control
[9] = 31 g ai/ha, 0 to 100 scale, 0 no effect, 100 complete control
[10] = 1000 g ai/ha, 0 to 100 scale, 0 no effect, 100 complete control, approx. 10 days
[11] = 1000 g ai/ha, 0 to 100 scale, 0 no effect, 100 complete control
[12] = 125 g ai/ha, 0 to 100 scale, 0 no effect, 100 complete control
[13] = 500 g ai/ha, 0 to 100 scale, 0 no effect, 100 complete control, approx. 10 days
[14] = 500 g ai/ha, 0 to 100 scale, 0 no effect, 100 complete control
[15] = 31 g ai/ha, 0 to 100 scale where 0 is no effect and 100 is complete control, visual, approximately 10 days

Row | Compound | Plant response rating, Ragweed [1, 7] | Ragweed plant response rating [1, 8] | Plant response rating, Ryegrass, Italian [2, 7] | Ryegrass, Italian plant response rating [2, 8] | Plant response rating, Ryegrass, Italian [3, 8] | Plant response rating, Blackgrass [4, 8] | Plant response rating, Rice ([5]; 31 g ai/ha) | Plant response rating, Rice ([5]; 62 g ai/ha) | Plant response rating, Rice ([5]; 125 g ai/ha) | Plant response rating, Rice ([5]; 250 g ai/ha) | Plant response rating, Ducksalad ([6]; 31 g ai/ha) | Plant response rating, Ducksalad ([6]; 62 g ai/ha) | Plant response rating, Ducksalad ([6]; 125 g ai/ha) | Plant response rating, Ducksalad ([6]; 250 g ai/ha) | other results
1 | COc1cnn(-c2c(C#N)cccc2Oc2ncc(Cl)cn2)c1 [Compound 137] | 30 | 60 | 0 | 20 | 80 | 90 | – | – | – | – | – | – | – | – | Ryegrass, Italian plant response rating [3, 7]: 20; Blackgrass plant response rating [4, 7]: 20
2 | Clc1cnc(Oc2ccccc2-n2cc(Cl)cn2)nc1 [Compound 3] | – | – | – | – | – | – | 0 | 0 | 0 | 0 | 0 | 50 | 70 | 85 | –
3 | N#Cc1cccc(Oc2ncc(F)cn2)c1-n1cc(Br)cn1 [Compound 62] | – | – | – | – | – | – | 15 | 15 | 15 | 25 | 30 | 70 | 85 | 100 | –
4 | N#Cc1cnn(-c2c(Oc3ncc(Cl)cn3)cccc2C(F)F)c1 [Compound 236] | – | – | – | – | – | – | 0 | 0 | 10 | 20 | 0 | 40 | 80 | 90 | –
5 | FCc1cccc(Oc2ncc(Br)cn2)c1-n1cc(C(F)(F)F)cn1 [Compound 120] | 0 | – | 30 | – | – | – | 0 | 0 | 15 | 60 | 0 | 40 | 80 | 90 | Ragweed plant response rating (0 to 100 scale) ([1]; 31 g ai/ha): 0; Ryegrass, Italian plant response rating (0 to 100 scale) ([2]; 31 g ai/ha): 0; Plant response rating, Ryegrass, Italian [3, 9]: 0; Plant response rating, Blackgrass [4, 9]: 60; Plant response rating, Blackgrass [4, 7]: 80
6 | Fc1cccc(Oc2ncc(Cl)cn2)c1-n1cc(C2CC2)nn1 [Compound 155] | – | – | – | – | – | – | – | – | – | – | – | – | – | – | Ragweed plant response rating [1, 10]: 90; Ryegrass, Italian plant response rating [2, 10]: 60; Plant response rating, Ryegrass, Italian [3, 11]: 100; Plant response rating, Blackgrass [4, 11]: 100
7 | FCc1cccc(Oc2ncc(F)cn2)c1-n1cc(C(F)(F)F)cn1 [Compound 118] | 90 | – | 50 | – | – | – | – | – | – | – | – | – | – | – | Ragweed plant response rating (0 to 100 scale) ([1]; 31 g ai/ha): 50; Ryegrass, Italian plant response rating (0 to 100 scale) ([2]; 31 g ai/ha): 0; Plant response rating, Ryegrass, Italian [3, 9]: 20; Plant response rating, Blackgrass [4, 9]: 60; Plant response rating, Blackgrass [4, 7]: 90
8 | N#Cc1cccc(Oc2ncc(Cl)cn2)c1-n1cc(-n2ccc(C(F)(F)F)n2)cn1 [Compound 284] | – | 0 | – | 20 | 60 | 70 | – | – | – | – | – | – | – | – | Ragweed plant response rating (0 to 100 scale) ([1]; 125 g ai/ha): 0; Ryegrass, Italian plant response rating (0 to 100 scale) ([2]; 125 g ai/ha): 20; Plant response rating, Ryegrass, Italian [3, 12]: 20; Plant response rating, Blackgrass [4, 12]: 30
9 | FCc1cccc(Oc2ncc(Cl)cn2)c1-n1cc(Br)cn1 [Compound 83] | 20 | – | 50 | – | 80 | – | – | – | – | – | – | – | – | – | Ragweed plant response rating [1, 13]: 50; Ryegrass, Italian plant response rating [2, 13]: 60; Plant response rating, Ryegrass, Italian [3, 7]: 50; Plant response rating, Blackgrass [4, 7]: 100; Plant response rating, Blackgrass [4, 14]: 100
10 | Cc1cnc(Oc2cccc(C#N)c2-n2cc(I)cn2)nc1 [Compound 136] | 80 | 100 | 0 | 30 | 90 | 100 | – | – | – | – | – | – | – | – | Ryegrass, Italian plant response rating [3, 7]: 30; Blackgrass plant response rating [4, 7]: 20
11 | Clc1cnc(Oc2cccc(Br)c2-n2cc(Br)cn2)nc1 [Compound 65] | – | – | – | – | – | – | 0 | 0 | 0 | 0 | 0 | 30 | 85 | 85 | –
12 | FC(F)(F)Sc1cnn(-c2ccccc2Oc2ncc(Cl)cn2)c1 [Compound 132, 5-chloro-2-[2-[4-(trifluoromethylthio)-1H-pyrazol-1-yl]phenoxy]pyrimidine] | 0 | 10 | 30 | 40 | 60 | 90 | – | – | – | – | – | – | – | – | Ryegrass, Italian plant response rating [3, 7]: 10; Blackgrass plant response rating [4, 7]: 60
13 | CCCOc1cnn(-c2c(C#N)cccc2Oc2ncc(Cl)cn2)c1 [Compound 150] | 30 | 70 | 20 | 50 | 100 | 100 | 0 | 0 | 0 | 0 | 0 | 40 | 70 | 75 | Ryegrass, Italian plant response rating [3, 7]: 40; Blackgrass plant response rating [4, 7]: 100
14 | FCc1cn(-c2c(F)cccc2Oc2ncc(Cl)cn2)nn1 [Compound 154] | – | – | – | – | – | – | – | – | – | – | – | – | – | – | Ragweed plant response rating [1, 10]: 100; Ryegrass, Italian plant response rating [2, 10]: 90; Plant response rating, Ryegrass, Italian [3, 11]: 90; Plant response rating, Blackgrass [4, 11]: 90
15 | Clc1cnc(Oc2cccc(Br)c2-n2cc(Br)nn2)nc1 [Compound 129] | 30 | 80 | 10 | 30 | 90 | 90 | – | – | – | – | – | – | – | – | Ryegrass, Italian plant response rating [3, 7]: 50; Blackgrass plant response rating [4, 7]: 70
16 | CCOc1cn(-c2c(Br)cccc2Oc2ncc(Cl)cn2)nn1 [Compound 84] | 10 | – | 0 | – | 80 | – | – | – | – | – | – | – | – | – | Ragweed plant response rating [1, 13]: 40; Ryegrass, Italian plant response rating [2, 13]: 20; Plant response rating, Ryegrass, Italian [3, 7]: 50; Plant response rating, Blackgrass [4, 7]: 80; Plant response rating, Blackgrass [4, 14]: 100
17 | N#Cc1cccc(Oc2ncc(Cl)cn2)c1-n1cnc(C(F)(F)F)c1 [Compound 252, 3-[(5-chloro-2-pyrimidinyl)oxy]-2-[4-(trifluoromethyl)-1H-imidazol-1-yl]benzonitrile] | – | 100 | – | 90 | 70 | 100 | – | – | – | – | – | – | – | – | Plant response rating, Ragweed [1, 15]: 20; Ragweed plant response rating (0 to 100 scale) ([1]; 125 g ai/ha): 70; Plant response rating, Ryegrass, Italian [2, 15]: 20; Ryegrass, Italian plant response rating (0 to 100 scale) ([2]; 125 g ai/ha): 20; Plant response rating, Ryegrass, Italian [3, 9]: 0; Plant response rating, Ryegrass, Italian [3, 12]: 40; Plant response rating, Blackgrass [4, 9]: 10; Plant response rating, Blackgrass [4, 12]: 60
